The target of this assay is T1, LIN28A(16–187)–let-7 interaction (Homo sapiens, UniProt Q9H9Z2).
T1 construct: LIN28A(16–187) or LIN28B(24–111); pET19a or pMAL vector) (cleaved yes); made in house; host or cells: Escherichia coli BL21(DE3)
T1 sequence (Q9H9Z2 16-187): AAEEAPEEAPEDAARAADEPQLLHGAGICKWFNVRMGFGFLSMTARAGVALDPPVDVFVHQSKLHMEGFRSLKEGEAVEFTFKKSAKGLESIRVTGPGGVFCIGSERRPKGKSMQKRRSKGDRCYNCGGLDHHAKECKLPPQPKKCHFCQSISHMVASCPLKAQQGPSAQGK
The assay is described as follows: Electrophoretic mobility shift assay (EMSA), disruption of LIN28–let-7 complex. It counts as binding. Particulars: for IC50: concentration-dependent EMSA, some values estimated, read-out: IC50 in dose–response EMSA; for inhibition at 75 µM: read-out: inhibition of the LIN28–let-7 interaction measured in EMSA. Here is the method: Inhibition of the LIN28–let-7 complex was evaluated by electrophoretic mobility shift assays. Mixtures containing compound at indicated concentrations, LIN28A(16–187) or LIN28B(24–111), and recombinant ribonuclease inhibitor (TaKaRa Bio) were incubated at room temperature for 2 h. The reaction buffer contained 50 mM TRIS, pH 7.5, 100 mM NaCl, 10 mM β-mercaptoethanol, 50 μM ZnCl2, 2% DMSO, 0.01% Tween-20 and 12% glycerol. Cy-3-fluorophore labeled RNA, (pre-E let-7f-1-Cy3, Mus musculus, […]-Cy3, purchased from IDT) was added to the reaction and incubated for further 15 min. The final concentrations were as follows: 10 nM LIN28A or 200 nM LIN28B, 5 nM RNA. Of each mixture, 10 μL was analyzed on a nondenaturing PAGE (5.3% acrylamide TAE PAGE for full-length LIN28 and 10% acrylamide TAE PAGE for analysis of the CSD) prerun for 1 h without sample and run for 1 h at 220 V at 4 °C in 0.25× TAE buffer. Gels were imaged using a ChemiDoc MP instrument (Bio-Rad Laboratories). Band intensities were analyzed using ImageJ and inhibition was quantified by calculation of the ratio of free RNA fluorescence to the fluorescence of the protein–RNA complex, and normalization to free RNA and LIN28–let-7 complex controls. The intensity ratio was analyzed by nonlinear regression fit in GraphPad Prism to determine the IC50 values.

Setting [1] is: single concentration of 75 μM, 75 µM.

Several values for one entry are separate records, joined by “and”; a condition that tells them apart may be missing. Identical values can stand only once. Like-named read-outs stand apart in the source and are kept apart here. Bounds are passed on as bounds.

We go through 41 molecules from publication PMC10726440, “N-Biphenyl Pyrrolinones and Dibenzofurans as RNA-Binding Protein LIN28 Inhibitors Disrupting the LIN28–Let-7 Interaction” (ACS Medicinal Chemistry Letters, 2023).

`O=C(C1=C(O)C(=O)N(c2ccc(O)c(C(=O)O)c2)C1c1ccc([N+](=O)[O-])cc1)c1ccccc1` (centres unmarked) [Compound 2]: the “inhibition of the LIN28–let-7 interaction measured in EMSA” value (“inhibition … in EMSA” below) (single concentration of 75 μM) is recorded as “not active”.

In the case of `Cc1ccc(C(=O)C2=C(O)C(=O)N(c3ccc(O)c(C(=O)O)c3)C2c2ccc([N+](=O)[O-])cc2)cc1` (centres unmarked) [Compound 3], the IC50 (commonly the concentration at which inhibition is half-maximal) is 33 µM. The inhibition (commonly the drop in the measured response relative to a control, in per cent) at 75 µM (single concentration of 75 μM) was at least 60%.

As for `O=C(C1=C(O)C(=O)N(c2ccc(O)c(C(=O)O)c2)C1c1ccc([N+](=O)[O-])cc1)c1ccccn1` (centres unmarked) [Compound 4], the IC50 is 19 µM and ~19 µM.

Take `O=C(O)c1cc(N2C(=O)C(O)=C(c3nccs3)C2c2ccc([N+](=O)[O-])cc2)ccc1O` (centres unmarked) [Compound 5]: the IC50 is 32 µM. In addition, where the note is “single concentration of 75 μM”, the “inhibition … in EMSA” value is listed as “active” and the inhibition at 75 µM is at least 60%.

For `O=C(C1=C(O)C(=O)N(c2ccc(O)c(C(=O)O)c2)C1c1ccc2[nH]nnc2c1)c1ccccc1` (centres unmarked) [Compound 6], the IC50 was 20 µM and ~20 µM. The inhibition at 75 µM (single concentration of 75 μM) was 95.4%.

On to `O=C(C1=C(O)C(=O)N(c2ccc(O)c(C(=O)O)c2)C1c1ccc2cn[nH]c2c1)c1ccccc1` (centres unmarked) [Compound 7], for which the concentration for half-maximal inhibition (IC50) is 34 µM. In addition, for the setting “single concentration of 75 μM”, the inhibition at 75 µM came out at 70.7%.

As for `O=C(C1=C(O)C(=O)N(c2ccc(O)c(C(=O)O)c2)C1c1ccc2cnccc2c1)c1ccccc1` (centres unmarked) [Compound 9], the IC50 is < 15 µM and ~5 µM. Further, the inhibition at 75 µM (single concentration of 75 μM) was determined as 99.9%.

For `Nc1ccc(C2C(C(=O)c3ccccc3)=C(O)C(=O)N2c2ccc(O)c(C(=O)O)c2)cc1` (centres unmarked) [Compound 10], the IC50 is < 15 µM and 5 to 15 µM. For the same molecule, the inhibition at 75 µM (single concentration of 75 μM) turned out to be 84.1%.

Take `O=C(C1=C(O)C(=O)N(CCCc2ccccc2)C1c1ccc([N+](=O)[O-])cc1)c1ccccc1` (centres unmarked) [Compound 12]: the half-inhibitory concentration (IC50) is < 15 µM and 5 to 15 µM. In addition, the “inhibition … in EMSA” value under setting [1] was determined as 77%. In addition, the inhibition at 75 µM (single concentration of 75 μM) was 76.5%.

Turning to `COc1ccc(CN/C(=C2\C(=O)C(=O)N(c3ccc(O)c(C(=O)O)c3)C2c2ccc([N+](=O)[O-])cc2)c2ccccc2)cc1` (centres unmarked) [Compound 13], the IC50 is 26 µM. Where the note is “single concentration of 75 μM”, the “inhibition … in EMSA” value was “active” and the inhibition at 75 µM is 102%.

As to `O=C(O)c1cc(N2C(=O)c3nn(Cc4ccccc4)c(-c4ccccc4)c3C2c2ccc([N+](=O)[O-])cc2)ccc1O` (centres unmarked) [Compound 14], the “inhibition … in EMSA” value (single concentration of 75 μM) was “inactive”.

As to `O=C(O)c1cc(N2C(=O)c3c(c(-c4ccccc4)nn3Cc3ccccc3)C2c2ccc([N+](=O)[O-])cc2)ccc1O` (centres unmarked) [Compound 15], the “inhibition … in EMSA” value (single concentration of 75 μM) was “inactive”.

As for `O=C(C1=C(O)C(=O)N(c2ccc(O)c(C(=O)O)c2)[C@@H]1c1ccc([N+](=O)[O-])cc1)c1ccc(Cl)cc1` [Compound 16], the “inhibition … in EMSA” value (single concentration of 75 μM) is given as “none of these aforementioned enantiomerically pure molecules were active”.

As for `O=C(C1=C(O)C(=O)N(c2ccc(O)c(C(=O)O)c2)[C@H]1c1ccc([N+](=O)[O-])cc1)c1ccc(Cl)cc1` [Compound 17], the “inhibition … in EMSA” value (single concentration of 75 μM) is given as “none of these aforementioned enantiomerically pure molecules were active”.

Turning to `O=C(O)c1cc(N2C(=O)C(O)=C(Cc3ccccc3)[C@@H]2c2ccc([N+](=O)[O-])cc2)ccc1O` [Compound 18], the “inhibition … in EMSA” value (single concentration of 75 μM) was “none of these aforementioned enantiomerically pure molecules were active”.

`O=C(O)c1cc(N2C(=O)C(O)=C(Cc3ccccc3)[C@H]2c2ccc([N+](=O)[O-])cc2)ccc1O` [Compound 19]: the “inhibition … in EMSA” value (single concentration of 75 μM) was “none of these aforementioned enantiomerically pure molecules were active”.

With `O=C(C1=C(O)C(=O)N(c2cccc([N+](=O)[O-])c2)[C@H]1c1ccc([N+](=O)[O-])cc1)c1ccccc1` [Compound 20], the “inhibition … in EMSA” value (single concentration of 75 μM) was “none of these aforementioned enantiomerically pure molecules were active”.

For the molecule `O=C(C1=C(O)C(=O)N(c2cccc([N+](=O)[O-])c2)[C@@H]1c1ccc([N+](=O)[O-])cc1)c1ccccc1` [Compound 21], under “single concentration of 75 μM”, the “inhibition … in EMSA” value is on record as “none of these aforementioned enantiomerically pure molecules were active”.

With `NC1=C(C(=O)c2ccccc2)[C@@H](c2ccc([N+](=O)[O-])cc2)N(c2ccc(O)c(C(=O)O)c2)C1=O` [Compound 22], the “inhibition … in EMSA” value was “inactive” (single concentration of 75 μM) and “none of these aforementioned enantiomerically pure molecules were active” under setting [1].

As for `N=C1CC=CC=C1C1=C(N)C(=O)N(c2ccc(O)c(C(=O)O)c2)[C@@H]1c1ccc([N+](=O)[O-])cc1` [Compound 23], the “inhibition … in EMSA” value is, setting by setting: (single concentration of 75 μM) “inactive”; under setting [1], “none of these aforementioned enantiomerically pure molecules were active”.

Regarding `O=C(C1=C(O)C(=O)N(c2cccc(-c3ccccc3)c2)C1c1ccc([N+](=O)[O-])cc1)C1CCCCC1` (centres unmarked) [Compound 24], under “single concentration of 75 μM”, the inhibition at 75 µM came to 49%.

For `O=C(C1=C(O)C(=O)N(c2cccc(-c3ccccc3)c2)C1c1ccc([N+](=O)[O-])cc1)C1CCC1` (centres unmarked) [Compound 26], the inhibition at 75 µM (single concentration of 75 μM) was determined as 8%.

With `O=C(C1=C(O)C(=O)N(c2cccc(-c3ccccc3)c2)C1c1ccc([N+](=O)[O-])cc1)c1ccc(Br)cc1` (centres unmarked) [Compound 30], the inhibition at 75 µM (single concentration of 75 μM) stood at 73%.

On to `COc1ccc(C(=O)C2=C(O)C(=O)N(c3cccc(-c4ccccc4)c3)C2c2ccc([N+](=O)[O-])cc2)cc1` (centres unmarked) [Compound 31], for which, where the note is “single concentration of 75 μM”, the inhibition at 75 µM was found to be 87%.

Regarding `O=C(C1=C(O)C(=O)N(c2cccc(-c3ccccc3)c2)C1c1ccc([N+](=O)[O-])cc1)c1ccc(F)cc1` (centres unmarked) [Compound 32], the inhibition at 75 µM (single concentration of 75 μM) turned out to be 76%.

In the case of `O=C(C1=C(O)C(=O)N(c2cccc(-c3ccccc3)c2)C1c1ccc([N+](=O)[O-])cc1)c1ccccc1F` (centres unmarked) [Compound 33], for the setting “single concentration of 75 μM”, the inhibition at 75 µM turned out to be 98%.

On to `O=C(C1=C(O)C(=O)N(c2cccc(-c3ccccc3)c2)C1c1ccc([N+](=O)[O-])cc1)c1ccc([N+](=O)[O-])c(O)c1` (centres unmarked) [Compound 34], for which the inhibition at 75 µM was 49%.

Consider `O=C(C1=C(O)C(=O)N(c2cccc(-c3ccccc3)c2)C1c1ccc([N+](=O)[O-])cc1)c1ccco1` (centres unmarked) [Compound 35], for which the IC50 was around 45 µM. For the same molecule, the inhibition at 75 µM (single concentration of 75 μM) turned out to be 87%.

On to `Cc1ccc(C(=O)C2=C(O)C(=O)N(c3cccc(-c4ccccc4)c3)C2c2ccc([N+](=O)[O-])cc2)o1` (centres unmarked) [Compound 36], for which the inhibition at 75 µM (single concentration of 75 μM) stood at 83%.

Turning to `Cn1cccc1C(=O)C1=C(O)C(=O)N(c2cccc(-c3ccccc3)c2)C1c1ccc([N+](=O)[O-])cc1` (centres unmarked) [Compound 37], the inhibition at 75 µM (single concentration of 75 μM) worked out at 75%.

Turning to `O=C(C1=C(O)C(=O)N(c2cccc(-c3ccccc3)c2)C1c1ccc([N+](=O)[O-])cc1)c1nccs1` (centres unmarked) [Compound 38], the inhibition at 75 µM (single concentration of 75 μM) is 8%.

On to `O=C(C1=C(O)C(=O)N(c2cccc(-c3ccccc3)c2)C1c1ccc([N+](=O)[O-])cc1)c1ccc(C(F)(F)F)cc1` (centres unmarked) [Compound 39], for which the inhibition at 75 µM (single concentration of 75 μM) came out at 40%.

Regarding `O=C(C1=C(O)C(=O)N(c2ccc3oc4ccccc4c3c2)C1c1ccc([N+](=O)[O-])cc1)c1ccccc1` (centres unmarked) [Compound 40], the inhibition at 75 µM (single concentration of 75 μM) was found to be 94%.

With `O=C(C1=C(O)C(=O)N(c2ccc3oc4ccccc4c3c2)C1c1ccc([N+](=O)[O-])cc1)c1ccc(Br)cc1` (centres unmarked) [Compound 41], the inhibition at 75 µM (single concentration of 75 μM) was 53%.

`COc1ccc(C(=O)C2=C(O)C(=O)N(c3ccc4oc5ccccc5c4c3)C2c2ccc([N+](=O)[O-])cc2)cc1` (centres unmarked) [Compound 42]: the inhibition at 75 µM (single concentration of 75 μM) was found to be 74%.

With `O=C(C1=C(O)C(=O)N(c2ccc3oc4ccccc4c3c2)C1c1ccc([N+](=O)[O-])cc1)c1ccc(F)cc1` (centres unmarked) [Compound 43], the inhibition at 75 µM (single concentration of 75 μM) was found to be 60%.

Turning to `O=C(C1=C(O)C(=O)N(c2ccc3oc4ccccc4c3c2)C1c1ccc([N+](=O)[O-])cc1)c1ccco1` (centres unmarked) [Compound 44], under “single concentration of 75 μM”, the inhibition at 75 µM was 90%.

In the case of `O=C(C1=C(O)C(=O)N(c2ccc3c(c2)oc2ccccc23)C1c1ccc([N+](=O)[O-])cc1)c1ccccc1` (centres unmarked) [Compound 45], the “inhibition of LIN28–let-7 complex formation in concentration-dependent EMSA (in words)” value (dose–response EMSA) is reported as “best inhibitory activities among the evaluated molecules”. Moreover, under “single concentration of 75 μM”, the inhibition at 75 µM was found to be 97%.

As for `O=C(C1=C(O)C(=O)N(c2ccc3c(c2)oc2ccccc23)C1c1ccc([N+](=O)[O-])cc1)c1ccc(Br)cc1` (centres unmarked) [Compound 46], for the setting “single concentration of 75 μM”, the inhibition at 75 µM worked out at 86%.

With `COc1ccc(C(=O)C2=C(O)C(=O)N(c3ccc4c(c3)oc3ccccc34)C2c2ccc([N+](=O)[O-])cc2)cc1` (centres unmarked) [Compound 47], the inhibition at 75 µM (single concentration of 75 μM) amounted to 87%.

Regarding `O=C(C1=C(O)C(=O)N(c2ccc3c(c2)oc2ccccc23)C1c1ccc([N+](=O)[O-])cc1)c1ccc(F)cc1` (centres unmarked) [Compound 48], the inhibition at 75 µM (single concentration of 75 μM) is 93%.
